Patent US12077503B2, “Substituted cyclic amides and their use as herbicides” (FMC CORPORATION, priority 2015, dated 2024)

How the values were obtained:
Assay type in all cases: in vivo
Kochia (Kochia scoparia) [1] = experiment: Test A preemergence; settings: Bassia scoparia, pre-emergence, 240 h, 0 to 100 scale where 0 is no effect and 100 is complete control, read-out: Kochia plant response rating
Outline: (§1)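 Preemergence soil spray on seeded pots or post-emergence spray on 1–2 leaf plants, in loam–sand blend. Greenhouse ~10 d. Visual rating 0–100 against untreated plants.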

[2] = system: barnyardgrass (Echinochloa crus-galli); experiment: Test A preemergence; settings: Echinochloa crus-galli, pre-emergence, 240 h, 0 to 100 scale where 0 is no effect and 100 is complete control, read-out: Barnyardgrass plant response rating
Outline: as §1

[3] = system: giant foxtail (Setaria faberii); experiment: Test A preemergence; settings: Setaria faberi, pre-emergence, 240 h, 0 to 100 scale where 0 is no effect and 100 is complete control, read-out: Foxtail, Giant plant response rating
Outline: as §1

[4] = system: pigweed (Amaranthus retroflexus); experiment: Test A preemergence; settings: Amaranthus retroflexus, pre-emergence, 240 h, 0 to 100 scale where 0 is no effect and 100 is complete control, read-out: Pigweed plant response rating
[5] = system: ragweed (common ragweed, Ambrosia elatior); experiment: Test A preemergence; settings: Ambrosia artemisiifolia, pre-emergence, 240 h, 0 to 100 scale where 0 is no effect and 100 is complete control, read-out: Ragweed plant response rating
Outline: as §1

[6] = system: ryegrass, Italian (Italian ryegrass, Lolium multiflorum); experiment: Test A preemergence; settings: Lolium multiflorum, pre-emergence, 240 h, 0 to 100 scale where 0 is no effect and 100 is complete control, read-out: Ryegrass, Italian plant response rating
Outline: as §1

[7] = system: Galium (catchweed bedstraw, Galium aparine); experiment: Test A postemergence; settings: Galium, post-emergence, 240 h, read-out: Galium plant response rating (0 to 100 scale)
Outline: as §1

Kochia (Kochia scoparia) [8] = experiment: Test A postemergence; settings: Bassia scoparia, post-emergence, 240 h, read-out: Kochia plant response rating (0 to 100 scale)
Outline: as §1

[9] = system: barnyardgrass (Echinochloa crus-galli); experiment: Test A postemergence; settings: Echinochloa crus-galli, post-emergence, 240 h, read-out: Barnyardgrass plant response rating (0 to 100 scale)
Outline: as §1

[10] = system: blackgrass (Alopecurus myosuroides); experiment: Test A postemergence; settings: Alopecurus myosuroides, post-emergence, 240 h, read-out: Blackgrass plant response rating (0 to 100 scale)
Outline: as §1

corn (Zea mays) = experiment: Test A postemergence; settings: Zea mays, post-emergence, 240 h, read-out: Corn plant response rating (0 to 100 scale)
Outline: as §1

[11] = system: giant foxtail (Setaria faberii); experiment: Test A postemergence; settings: Setaria faberi, post-emergence, 240 h, read-out: Foxtail, Giant plant response rating (0 to 100 scale)
Outline: as §1

[12] = system: pigweed (Amaranthus retroflexus); experiment: Test A postemergence; settings: Amaranthus retroflexus, post-emergence, 240 h, read-out: Pigweed plant response rating (0 to 100 scale)
Outline: as §1

[13] = system: ragweed (common ragweed, Ambrosia elatior); experiment: Test A postemergence; settings: Ambrosia artemisiifolia, post-emergence, 240 h, read-out: Ragweed plant response rating (0 to 100 scale)
Outline: as §1

[14] = system: ryegrass, Italian (Italian ryegrass, Lolium multiflorum); experiment: Test A postemergence; settings: Lolium multiflorum, post-emergence, 240 h, read-out: Ryegrass, Italian plant response rating (0 to 100 scale)
Outline: as §1

[15] = system: wheat (Triticum aestivum); experiment: Test A postemergence; settings: Triticum aestivum, post-emergence, 240 h, read-out: Wheat plant response rating (0 to 100 scale)
Outline: as §1

[16] = system: barnyardgrass (Echinochloa crus-galli); experiment: Test B flooded paddy test; settings: Echinochloa crus-galli, 250 g ai/ha, Flood; 0 to 100 scale where 0 is no effect and 100 is complete control; read-out: Barnyardgrass plant response rating
Outline: (§2)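 Percent control, visually estimated after 13–15 d in the greenhouse on a 0–100 basis, compares treated pots with untreated ones; compound was put into paddy water 3 cm above the soil when plants had two leaves.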

[17] = system: ducksalad (Heteranthera limosa); experiment: Test B flooded paddy test; settings: Heteranthera limosa, 250 g ai/ha, Flood; 0 to 100 scale where 0 is no effect and 100 is complete control; read-out: Ducksalad plant response rating
Outline: as §2

rice (Oryra sativa) = experiment: Test B flooded paddy test; settings: Oryza sativa, 250 g ai/ha, Flood; 0 to 100 scale where 0 is no effect and 100 is complete control; read-out: Rice plant response rating
Outline: as §2

[18] = system: sedge, umbrella (small-flower umbrella sedge, Cyperus difformis); experiment: Test B flooded paddy test; settings: Cyperus difformis, 250 g ai/ha, Flood; 0 to 100 scale where 0 is no effect and 100 is complete control; read-out: Sedge, Umbrella plant response rating
Outline: as §2

[19] = 125 g ai/ha, preemergence, visual injury rating, approximately 10 d
[20] = 125 g ai/ha, postemergence, visual injury vs untreated controls after approx. 10 d, 0 = no effect, 100 = complete control
[21] = Postemergence, 31 g ai/ha, 0 is no effect, 100 is complete control

How did the pest or weed control at 31 g/ha (Kochia (Kochia scoparia) [1]; 31 g ai/ha, Preemergence) turn out when `N#Cc1ccc([C@H]2CNC(=O)[C@@H]2C(=O)Nc2ccccc2F)cc1F` [Compound 1191] was run?
Its pest or weed control at 31 g/ha is 0%.

What about the pest or weed control at 125 g/ha (Kochia (Kochia scoparia) [1]; [19]) of the same molecule?
The pest or weed control at 125 g/ha was 0%.

And the pest or weed control at 31 g/ha ([2]; 31 g ai/ha, Preemergence)?
Its pest or weed control at 31 g/ha is 0%.

What about the pest or weed control at 125 g/ha [2, 19] of the same molecule?
Its pest or weed control at 125 g/ha is 0%.

What about the pest or weed control at 31 g/ha ([3]; 31 g ai/ha, Preemergence) of the same molecule?
The pest or weed control at 31 g/ha was 0%.

What about the pest or weed control at 125 g/ha [3, 19] of the same molecule?
The pest or weed control at 125 g/ha was 0%.

And the pest or weed control at 31 g/ha ([4]; 31 g ai/ha, Preemergence)?
The pest or weed control at 31 g/ha was 0%.

What about the pest or weed control at 125 g/ha [4, 19] of the same molecule?
Its pest or weed control at 125 g/ha is 0%.

What about the pest or weed control at 31 g/ha ([5]; 31 g ai/ha, Preemergence) of the same molecule?
Its pest or weed control at 31 g/ha is 0%.

What about the pest or weed control at 125 g/ha [5, 19] of the same molecule?
The pest or weed control at 125 g/ha was 0%.

And the pest or weed control at 31 g/ha ([6]; 31 g ai/ha, Preemergence)?
The pest or weed control at 31 g/ha was 0%.

What about the pest or weed control at 125 g/ha [6, 19] of the same molecule?
Its pest or weed control at 125 g/ha is 0%.

And the pest or weed control at 125 g/ha [7, 20]?
The pest or weed control at 125 g/ha was 0%.

What about the pest or weed control at 31 g/ha [7, 21] of the same molecule?
Its pest or weed control at 31 g/ha is 0%.

And the pest or weed control at 125 g/ha (Kochia (Kochia scoparia) [8]; [20])?
Its pest or weed control at 125 g/ha is 0%.

And the pest or weed control at 31 g/ha (Kochia (Kochia scoparia) [8]; [21])?
The pest or weed control at 31 g/ha was 0%.

What about the pest or weed control at 125 g/ha [9, 20] of the same molecule?
Its pest or weed control at 125 g/ha is 0%.

And the pest or weed control at 31 g/ha [9, 21]?
Its pest or weed control at 31 g/ha is 0%.

What about the pest or weed control at 125 g/ha [10, 20] of the same molecule?
The pest or weed control at 125 g/ha was 0%.

What about the pest or weed control at 31 g/ha [10, 21] of the same molecule?
The pest or weed control at 31 g/ha was 0%.

What about the plant injury at 125 g/ha (corn (Zea mays); [20]) of the same molecule?
The plant injury at 125 g/ha was 0%.

And the plant injury at 31 g/ha (corn (Zea mays); [21])?
Its plant injury at 31 g/ha is 0%.

What about the pest or weed control at 125 g/ha [11, 20] of the same molecule?
The pest or weed control at 125 g/ha was 0%.

And the pest or weed control at 31 g/ha [11, 21]?
The pest or weed control at 31 g/ha was 0%.

What about the pest or weed control at 125 g/ha [12, 20] of the same molecule?
Its pest or weed control at 125 g/ha is 0%.

What about the pest or weed control at 31 g/ha [12, 21] of the same molecule?
The pest or weed control at 31 g/ha was 0%.

And the pest or weed control at 125 g/ha [13, 20]?
The pest or weed control at 125 g/ha was 0%.

What about the pest or weed control at 31 g/ha [13, 21] of the same molecule?
Its pest or weed control at 31 g/ha is 0%.

And the pest or weed control at 125 g/ha [14, 20]?
Its pest or weed control at 125 g/ha is 0%.

What about the pest or weed control at 31 g/ha [14, 21] of the same molecule?
Its pest or weed control at 31 g/ha is 0%.

And the plant injury at 125 g/ha [15, 20]?
Its plant injury at 125 g/ha is 0%.

What about the plant injury at 31 g/ha [15, 21] of the same molecule?
The plant injury at 31 g/ha was 0%.

What about the pest or weed control at 250 g/ha [16] of the same molecule?
Its pest or weed control at 250 g/ha is 0%.

What about the pest or weed control at 250 g/ha [17] of the same molecule?
Its pest or weed control at 250 g/ha is 90%.

What about the pest or weed control at 250 g/ha (rice (Oryra sativa)) of the same molecule?
The pest or weed control at 250 g/ha was 10%.

What about the pest or weed control at 250 g/ha [18] of the same molecule?
Its pest or weed control at 250 g/ha is 0%.
